Data published in article PMC12607897, “Inhibition of HIV-1 replication by primer RNA packaging inhibitors” (mBio, 2025).
Like-named read-outs stand apart in the source and are kept apart here.

Key:
[1] = molecular target: T1, mLysRS:IN interaction (human mLysRS, HIV-1 IN) (UniProt P12497+Q15046); test: HTRF assay of mLysRS:IN interaction; type: binding, human / HIV-1; conditions: for effect on the mLysRS:IN interaction in the HTRF assay: dihydropyridine derivatives, Fig. S2
T1 construct: made in house
Method: Fig 1 Determination of the half-maximal inhibitory concentration (IC50) of the drugs in the mLysRS:IN binding assay. The binding of mLysRS to IN (red) or p38 (blue) was monitored in the HTRF assay in the presence of increasing drug concentrations (9–1,000 µM). The experimental values (symbols) were fitted (curves) to the equation Y = Ymin + {(Ymax − Ymin)/[1 + (X/IC50)^n]}, where n is the Hill coefficient. […] Proteins were isolated as described previously ([4]). Several batches of IN were used throughout this study. […] The molecules are dissolved in DMSO at a final concentration of 10 mM. After a 1 h incubation on ice, antibodies (Cisbio) directed to the His-tag and conjugated with Eu^3+ cryptate (Cisbio #61HISKLB) and the HA-tag conjugated with XL665 (Cisbio #610HAXLB) were added, and incubation was continued for 30 min. After the addition of 50 mM KF, fluorescence of Eu^3+ cryptate and of XL665 was recorded at 620 nm (I620) and 665 nm (I665), respectively, following excitation of Eu^3+ cryptate at 317 nm, in an Infinite M1000 PRO microplate reader (TECAN). The results were expressed as the ratio of I665/I620.

[2] = test system: MT4 cells; test: cell toxicity by MTT assay; type: cell-based, human; conditions: MTT assay, 1, 3.3 or 10 µM
Method: (§1) Fig 3 Effect of the inhibitors on HIV-1 replication and cell toxicity. MT4 cells were infected with NL4-3-GFP virus. Two days after infection, inhibitors were added to the culture medium at final concentrations of 1, 3.3, or 10 µM. The final concentration of DMSO was 0.1%. Five days after infection, GFP expression was quantified by flow cytometry, and cell viability was determined by the MTT assay. NInf corresponds to non-infected cells. Six independent experiments were performed, and standard deviations are shown. A Student t-test was used to determine statistical significance compared with the control experiment with DMSO (*: P < 0.001; **: P < 0.0001).
Replication of the NL4-3 virus was determined either by the ELISA technique or in HeLa-P4 cells by the CPRG method as described previously ([29]). These are HeLa CD4 LTR-lacZ cells in which the expression of lacZ is induced by the HIV transactivator Tat, allowing precise quantification of the infectivity of HIV-1. The viral titer was determined by quantifying β-galactosidase activity in HeLa-P4 lysates in a colorimetric assay based on the cleavage of chlorophenol red-β-D-galactopyranoside (CPRG) by β-galactosidase. The cytotoxicity is evaluated by the MTT assay.

[3] = test system: HIV-1 NLENG1-IRES-GFP (NL4-3-GFP) virus in MT4 cells; test: ex vivo HIV-1 replication assay, GFP expression by flow cytometry in infected MT4 cells (multiple cycles); type: cell-based; conditions: for GFP fluorescence, % of the value observed when DMSO was added alone: drug 10 µM, added 36–48 h after infection, read 72 h later
Method: To test this hypothesis, azelastine, lacidipine, and cilnidipine were used in an ex vivo assay to determine their effect on HIV-1 proliferation. MT4 cells were infected with NLENG1-IRES-GFP, a virus that allows for multiple cycles of infection, and the molecules were added to the medium 36–48 h after infection, before the completion of the first round of viral infection; 72 h after the drugs were added, when two rounds of HIV-1 infection were underway, the level of GFP fluorescence was determined by flow cytometry, as a marker of HIV-1 infection (Fig. 3, left panel). HIV-1 replication was inhibited in a dose-dependent manner. […]. […] At the same time, no drug toxicity was observed, as determined by the MTT assay (Fig. 3, right panel). […] The selectivity index (SI) ([24]) of the three drugs, defined as the ratio of 50% cytotoxic concentration (CC50; >20 µM) to 50% inhibitory concentration (IC50; ~5 µM), >4.
as §1
MT4 cell line ([26]) was maintained in RPMI 1640. HEK293T and HeLa-P4 cells ([27]) were maintained in Dulbecco’s modified Eagle medium (DMEM). All media were supplemented with Glutamax and with 10% heat-inactivated fetal calf serum (Hyclone) and 1% penicillin/streptomycin (100 units/mL) (Gibco). All media were purchased from Gibco (Life Technologies Co.). All cell lines used here were incubated at 37 °C, under 5% CO2 atmosphere. HIV-1 stocks were prepared by calcium phosphate-mediated transfection of HEK293T cells, as previously described ([22]), with shuttle vector plasmids encoding HIV-1 NL4-3 (GenBank: AF324493.1) or NLENG1-IRES-GFP ([28]). The latter vector comes from the HIV NL4-3 strain and contains a gfp-IRES-nef cassette at the nef locus. […].
For NL4-3-GFP vectors, viral infection is followed by GFP expression (i.e., the percentage and geometric mean fluorescence intensity [MFI] of GFP^+ cells). Infectivity was estimated by flow cytometry using a FACS Celesta flow cytometer (BD Biosciences). Toxicity is also assessed by flow cytometry (side and forward scatter).

[4] = test system: HIV-1 NL4-3 virus particles; test: digital PCR / RT-dPCR of minus-strand strong stop cDNA and viral RNA in particles; type: cell-based; conditions: 10 µM drug, 72 and 96 h after infection
Text: We used digital RT-PCR and digital PCR to determine the viral mRNA and minus-strand strong stop viral cDNA content of the particles (Fig. 7; Fig. S6). The amount of early viral cDNA produced in the HIV-1 particles is a measure of the efficiency of the initiation step of reverse transcription, which requires the packaging of tRNA3^Lys at the budding step, the primer for cDNA synthesis.
Fig 7 Effect of drugs on viral synthesis of minus-strand strong stop cDNA. Viruses were harvested from the culture medium after 72 (red) or 96 h (blue) of infection of MT4 cells with NL4-3 viruses. Minus-strand strong stop viral DNA and viral RNA (vRNA) were quantified by digital PCR and RT-dPCR, respectively. Viruses were harvested from cultures grown in the presence of 10 µM of azelastine (Aze), lacidipine (Lac), or cilnidipine (Cil), or H2O or DMSO as controls. Values and the associated standard deviations (n = 3) are expressed as the ratios of the values obtained for the H2O or DMSO controls. […].
MT4 cells (2 × 10^6 cells) were infected with the NL4-3 viruses. After 4–5 h of infection at 37°C, cells were twice washed with PBS, incubated 5 min at 37°C in 0.25% trypsin-EDTA solution (Gibco) to eliminate viruses remaining in the medium, incubated 5 min at 37°C in complete RPMI medium, twice washed with PBS, resuspended in RPMI medium at a cell density of 200 × 10^3 cells/mL and incubated with 10 µM of azelastine (25 mM stock solution in H20), or lacidipine and cilnidipine (25 mM stock solution in DMSO). A second aliquot of the inhibitors was added to the culture medium 48 h after infection. […] All RNA and DNA quantifications were performed by digital PCR and RT-qPCR on a QIAcuity instrument (QIAGEN) using 26K 24-well nanoplates and the QIAcuity Probe PCR and One-Step Viral RT-PCR kits. Primers and probes were 5′-[…], 5′-[…], and 5′-[…] for the quantification of minus-strand strong-stop cDNA, and 5′-[…], 5′-[…], and 5′-[…] CGT for viral RNA quantification.

[5] = molecular target: mLysRS (Homo sapiens, UniProt Q15046); test: tRNA aminoacylation assay; type: biochemical; conditions: drug added up to 1 mM
Method: Initial rates of tRNA aminoacylation were measured at 25°C in 0.1 mL of 20 mM Imidazole-HCl buffer (pH 7.5), 100 mM KCl, 0.5 mM DTT, 12 mM MgCl2, 2 mM ATP, 180 µM ^14C-labeled lysine (NEN; 16.66 Ci/mol), and saturating amounts of global yeast tRNA ([30]). The incubation mixture contained catalytic amounts (2 nM) of mLysRS appropriately diluted in 10 mM Tris-HCl (pH 7.5), 10 mM 2-mercaptoethanol, containing bovine serum albumin at 4 mg/mL. Inhibitors were added at final concentrations ranging from 3.9 to 1,000 µM. One unit of activity is the amount of enzyme producing 1 nmol of lysine-tRNA^Lys/min, at 25°C.
Fig. S5. Effect of inhibitors on mLysRS activity. The tRNA-aminoacylation activity of mLysRS
was determined in the presence of increasing concentrations of the drugs. Two independent
experiments were performed and standard deviations are shown.
Fig. 6. Raw data of quantification of minus-strand strong stop viral DNA and viral RNA by
digital PCR from viruses recovered after 72 h incubation in the presence of 10 µM of the drugs.

[6] = HTRF, mLysRS 1.5 nM dimer, IN 25 nM dimer, read-out: half-maximal inhibitory concentration (IC50) in the mLysRS:IN assay

T1 sequence (Q15046 other isoform, or with tags, fused parts or gaps, other chains not shown): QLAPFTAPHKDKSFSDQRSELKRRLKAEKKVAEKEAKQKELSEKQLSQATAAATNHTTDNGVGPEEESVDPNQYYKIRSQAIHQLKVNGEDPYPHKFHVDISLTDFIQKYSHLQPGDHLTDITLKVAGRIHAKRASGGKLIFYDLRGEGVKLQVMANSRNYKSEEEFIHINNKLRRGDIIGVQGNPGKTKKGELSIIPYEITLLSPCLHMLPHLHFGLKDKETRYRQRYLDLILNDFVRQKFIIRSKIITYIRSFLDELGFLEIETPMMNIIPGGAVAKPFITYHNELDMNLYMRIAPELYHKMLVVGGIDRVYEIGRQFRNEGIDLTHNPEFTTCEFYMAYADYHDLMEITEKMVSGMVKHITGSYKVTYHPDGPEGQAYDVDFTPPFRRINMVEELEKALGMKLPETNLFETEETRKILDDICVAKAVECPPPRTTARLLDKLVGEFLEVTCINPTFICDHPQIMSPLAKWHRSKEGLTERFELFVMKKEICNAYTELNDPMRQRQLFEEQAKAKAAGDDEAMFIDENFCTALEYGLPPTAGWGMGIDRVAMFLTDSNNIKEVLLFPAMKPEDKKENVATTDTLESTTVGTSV
Sequence of mLysRS (Q15046 31-625 isoform Q15046-2): as the sequence (Q15046 other isoform, or with tags, fused parts or gaps, other chains not shown) above

## CCOC(=O)C1=C(C)NC(C)=C(C(=O)OCC)C1 [Diludine]
[1]
  effect on the mLysRS:IN interaction in the HTRF assay: did not significantly alter

## COC(=O)C1=C(C)NC(C)=C(C(=O)OC(C)(C)CN(C)CCC(c2ccccc2)c2ccccc2)C1c1cccc([N+](=O)[O-])c1 (centres unmarked) [Lercanidipine]
[2]
  cell toxicity: higher cellular toxicity

## CC1=C(C(=O)OC(C)C)C(c2cccc([N+](=O)[O-])c2)C(C(=O)OC2CN(C(c3ccccc3)c3ccccc3)C2)=C(N)N1 (centres unmarked) [azelnidipine]
[2]
  cell toxicity: higher cellular toxicity

## CCCC(=O)OCOC(=O)C1=C(C)NC(C)=C(C(=O)OC)C1c1cccc(Cl)c1Cl (centres unmarked) [celvidipine]
[1]
  effect on the mLysRS:IN interaction in the HTRF assay: did not significantly alter

## COCCOC(=O)C1=C(C)NC(C)=C(C(=O)OC/C=C/c2ccccc2)C1c1cccc([N+](=O)[O-])c1 (centres unmarked) [cilnidipine]
[3]
  GFP fluorescence, % of the value observed when DMSO was added alone: 18.9%
[1]; [6]
  IC50: 310 ± 30 µM
[4]
  minus-strand strong stop cDNA in viruses, normalized to viral RNA: significantly reduced
[5]
  inhibition of Lysyl-tRNA^Lys synthesis: did not inhibit

## CCOC(=O)C1=C(C)NC(C)=C(C(=O)OC)C1c1cccc(Cl)c1Cl (centres unmarked) [felodipine]
[1]
  effect on the mLysRS:IN interaction in the HTRF assay: did not significantly alter

## COC(=O)C1=C(C)NC(C)=C(C(=O)OC(C)C)C1c1cccc2nonc12 (centres unmarked) [isradipine]
[1]
  IC50: > 500 µM

## CCOC(=O)C1=C(C)NC(C)=C(C(=O)OCC)C1c1ccccc1/C=C/C(=O)OC(C)(C)C [lacidipine]
[3]
  GFP fluorescence, % of the value observed when DMSO was added alone: 27.2%
[1]; [6]
  IC50: 64 ± 8 µM
[4]
  minus-strand strong stop cDNA in viruses, normalized to viral RNA: significantly reduced
[5]
  inhibition of Lysyl-tRNA^Lys synthesis: 30%

## CCOC(=O)C1=C(COCCN)NC(C)=C(C(=O)OC)[C@@H]1c1ccccc1Cl [levamlodipine]
[1]
  effect on the mLysRS:IN interaction in the HTRF assay: did not significantly alter

## COC(=O)C1=C(C)NC(C)=C(C(=O)OCCN(C)Cc2ccccc2)C1c1cccc([N+](=O)[O-])c1 (centres unmarked) [nicardipine]
[1]
  IC50: > 500 µM

## COCCOC(=O)C1=C(C)NC(C)=C(C(=O)OC(C)C)C1c1cccc([N+](=O)[O-])c1 (centres unmarked) [nimodipine]
[1]
  effect on the mLysRS:IN interaction in the HTRF assay: did not significantly alter

## COC(=O)C1=C(C)NC(C)=C(C(=O)OCC(C)C)C1c1ccccc1[N+](=O)[O-] (centres unmarked) [nisoldipine]
[3]; NL4-3-GFP, Fig. S3
  inhibition of HIV-1 replication in the ex vivo assay: did not inhibit

## CCOC(=O)C1=C(C)NC(C)=C(C(=O)OC)C1c1cccc([N+](=O)[O-])c1 (centres unmarked) [nitrendipine]
[1]
  IC50: > 500 µM

## COC(=O)C1=C(C#N)NC(C)=C(C(=O)OC(C)C)C1c1cccc([N+](=O)[O-])c1 (centres unmarked) [nivaldipine]
[1]; [6]
  IC50: > 500 µM
